From patent US9169229B2, “Method for producing purified dialkyl-furan-2,5-dicarboxylate by physical separation and solid liquid separation” (Eastman Chemical Company, priority 2012, dated 2015)

Key:
[1] = Solubility of DMFD in methanol (jacketed solubility cell, samples analyzed by gas chromatography); assay type: physicochemical
Procedure: (§1) The solubility of DMFD in water and methanol was tested according to the following procedure: A jacketed 120 ml solubility cells equipped with a condenser, a digital thermometer, a nitrogen blanket and connected to a circulating bath capable of heating/cooling was charged with […] and water or methanol. The heterogeneous mixture was heated to the desired temperature and sample was taken using preheated fritted glass pipette. The samples were analyzed using gas chromatography.

[2] = Solubility of DMFD in water (jacketed solubility cell, samples analyzed by gas chromatography); assay type: physicochemical
Procedure: as §1

DMFD Solubility (wt %) in Methanol ([1]; T 1.0 ° C.): 0.6 wt %
DMFD Solubility (wt %) in Methanol ([1]; T 14.1 ° C.): 1.4 wt %
DMFD Solubility (wt %) in Methanol ([1]; T 26.3 ° C.): 2.8 wt %
DMFD Solubility (wt %) in Methanol ([1]; T 35.3 ° C.): 4.5 wt %
DMFD Solubility (wt %) in Methanol ([1]; T 46.6 ° C.): 8.7 wt %
DMFD Solubility (wt %) in Methanol ([1]; T 56.1 ° C.): 15.4 wt %
DMFD Solubility (wt %) in Methanol ([1]; T 61.3 ° C.): 20.8 wt %
DMFD Solubility (wt %) in Water ([2]; T 1.4 ° C.): BDL
DMFD Solubility (wt %) in Water ([2]; T 13.1 ° C.): BDL
DMFD Solubility (wt %) in Water ([2]; T 26.6 ° C.): BDL
DMFD Solubility (wt %) in Water ([2]; T 35.6 ° C.): BDL
DMFD Solubility (wt %) in Water ([2]; T 47.0 ° C.): 0.1 wt %
DMFD Solubility (wt %) in Water ([2]; T 56.6 ° C.): 0.2 wt %
DMFD Solubility (wt %) in Water ([2]; T 63.9 ° C.): 0.3 wt %
DMFD Solubility (wt %) in Water ([2]; T 74.6 ° C.): 0.4 wt %
DMFD Solubility (wt %) in Water ([2]; T 89.5 ° C.): 0.9 wt %
DMFD Solubility (wt %) in Water ([2]; T 97.5 ° C.): 1.3 wt %
SMILES: COC(=O)c1ccc(C(=O)OC)o1 [DMFD, dimethyl furan-2,5-dicarboxylate]
solubility of DMFD in water compared to methanol (in words) ([2]; temperature points from about 1° C. to about 61° C.): very low solubility in water compared to methanol
